The record followed here is patent US6350744B1, “Compounds having cytokine inhibitory activity” (Merck & Co., Inc., priority 1998, dated 2002).

By melting point is commonly meant the temperature, or range, at which the solid turns liquid.

The compound `CN1CCC(c2cc(-c3ccncc3)c(-c3cccc(C(F)(F)F)c3)nn2)CC1` [Example 11, 3-(3-trifluoromethylphenyl)-4(pyridine-4-yl)-6-(N-methylpiperidin-4-yl)pyridazine] showed a melting point of 188 to 189 °C. The result for `FC(F)(F)c1cccc(-c2cc(C3CCNCC3)nnc2-c2ccncc2)c1` [Example 28, 3-(pyridine-4-yl)-4-(3-trifluoromethylphenyl)-6-(piperidin-4-yl)pyridazine] reads 148 to 150 °C.
